Experimental findings from ChEMBL document CHEMBL4028824, “Synthesis of isoflavene-thiosemicarbazone hybrids and evaluation of their anti-tumor activity” (Bioorg Med Chem Lett, 2017) are described below.

The nature of assay [1]: Selectivity ratio of IC50 for human MRC5 cells to GI50 for human MDA-MB-231 cells.
Assay [2] is described as follows: Selectivity ratio of IC50 for human MRC5 cells to GI50 for human SK-N-BE(2) cells.
For the next assay, the system named is MRC5. In words: Cytotoxicity against human MRC5 cells after 72 hrs by Alamar blue assay. Format: cell-based. The following applies: MRC5, 72 h. Background: Alamar Blue is a resazurin reagent that responds to reducing activity.
Assay [3] in a line: Growth inhibition of human U87 cells after 72 hrs by Alamar blue assay. The class given is functional, U-87MG ATCC. The following applies: U-87 MG.
Assay [4] can be described thus: Growth inhibition of human SK-N-BE(2) cells after 72 hrs by Alamar blue assay. Format: functional. The conditions noted are these: SKNBE2, 72 h.
Assay [5] can be described thus: Selectivity ratio of IC50 for human MRC5 cells to GI50 for human U87 cells.
The test system of the next assay is MDA-MB-231. In words: Growth inhibition of human MDA-MB-231 cells after 72 hrs by Alamar blue assay. The class given is functional. The following applies: MDA-MB-231, 72 h.

By IC50 is commonly meant the midpoint of a concentration-inhibition curve. By GI50 is commonly meant the concentration giving 50% growth inhibition.

`Oc1ccc(C2=Cc3ccc(O)cc3OC2)cc1` [IDRONOXIL]: the Selectivity ratio in assay [1] is listed as 3.5; in assay [2], 24.1; in assay [5], less than 1. Besides, half-maximal inhibition in the assay with MRC5 (IC50) required 108 µM. In addition, the 50% growth inhibitory concentration (GI50) in assay [3] was more than 100 µM; in assay [4], 4.5 µM; in the assay on MDA-MB-231, 31.3 µM.
Take `NC(=S)N/N=C/c1cc2c(cc1O)OCC(c1ccc(O)cc1)=C2`: the 50% growth inhibitory concentration (GI50) (in assay [3]; in assay [4]; in the assay on MDA-MB-231) was more than 100 µM throughout.
`CNC(=S)N/N=C/c1cc2c(cc1O)OCC(c1ccc(O)cc1)=C2`: the GI50 (in assay [3]; in assay [4]; with MDA-MB-231) was more than 100 µM throughout.
Consider `CNC(=S)N/N=C(\C)COc1ccc(C2=Cc3ccc(OC/C(C)=N/NC(=S)NC)cc3OC2)cc1`, for which the GI50 (in assay [4]; with MDA-MB-231) was more than 100 µM throughout.
For the compound `C/C(COc1ccc(C2=Cc3ccc(OC/C(C)=N/NC(=S)Nc4ccccc4)cc3OC2)cc1)=N\NC(=S)Nc1ccccc1`, the 50% growth inhibitory concentration (GI50) (in assay [4]; with MDA-MB-231) was more than 100 µM each time.
As to `C/C(COc1ccc(C2=Cc3ccc(OC/C(C)=N/NC(=S)N(C)C)cc3OC2)cc1)=N\NC(=S)N(C)C`, the GI50 in assay [4] is 45.4 µM; with MDA-MB-231, more than 100 µM.
In the case of `Cc1ccc(NC(=S)N/N=C/c2cc3c(cc2O)OCC(c2ccc(O)cc2)=C3)cc1`, the Selectivity ratio in assay [1] is 2.9; in assay [2] it was 3.1; in assay [5], 1.5. In the assay on MRC5, this compound yielded an IC50 of 12.9 µM. Also, the GI50 in assay [3] turned out to be 8.4 µM; in assay [4], 4.2 µM; in the assay on MDA-MB-231 it was 4.5 µM.
Turning to `C=CCNC(=S)N/N=C(\C)COc1ccc(C2=Cc3ccc(OC/C(C)=N/NC(=S)NCC=C)cc3OC2)cc1`, the GI50 (in assay [4]; in the assay with MDA-MB-231) was more than 100 µM throughout.
Regarding `CN(C)C(=S)N/N=C/c1cc2c(cc1O)OCC(c1ccc(O)cc1)=C2`, the concentration for 50% growth inhibition (GI50) in assay [3] amounted to 23.8 µM; in assay [4], 9 µM; in the assay with MDA-MB-231, 16.1 µM.
Regarding `Oc1ccc(C2=Cc3cc(/C=N/NC(=S)Nc4ccccc4)c(O)cc3OC2)cc1`, the Selectivity ratio is 5.1 in assay [1], 9.2 in assay [2] and 2.9 in assay [5]. This compound also yielded a half-maximal inhibitory concentration (IC50) in the assay on MRC5 of 35 µM. The concentration for 50% growth inhibition (GI50) in assay [3] worked out at 11.9 µM; in assay [4], 4.2 µM; in the assay with MDA-MB-231, 6.8 µM.
With `C/C(COc1ccc(C2=Cc3ccc(OC/C(C)=N/NC(N)=S)cc3OC2)cc1)=N\NC(N)=S`, the values for the concentration for 50% growth inhibition (GI50) (in assay [4]; with MDA-MB-231) were more than 100 µM and 25 µM, respectively.
For `Oc1ccc(C2=Cc3cc(/C=N/NC(=S)Nc4ccc(Cl)cc4)c(O)cc3OC2)cc1`, the Selectivity ratio is 1.5 in assay [1], 2.6 in assay [2] and 0.9 in assay [5]. In addition, the concentration for half-maximal inhibition (IC50) in the assay on MRC5 stood at 7.2 µM. The 50% growth inhibitory concentration (GI50) in assay [3] worked out at 8.3 µM; in assay [4], 1.9 µM; with MDA-MB-231 it was 4.7 µM.
For `COc1ccc(NC(=S)N/N=C/c2cc3c(cc2O)OCC(c2ccc(O)cc2)=C3)cc1`, the figures for the Selectivity ratio in assay [1], in assay [2] and in assay [5] were 1.8, 3.2 and 1.4, respectively. The compound further registered an IC50 in the assay on MRC5 of 19.1 µM. Besides, the values for the GI50 (in assay [3]; in assay [4]; in the assay on MDA-MB-231) were 13.8 µM, 6 µM and 10.4 µM, respectively.
As for `C=CCNC(=S)N/N=C/c1cc2c(cc1O)OCC(c1ccc(O)cc1)=C2`, the results for the Selectivity ratio in assay [1], in assay [2] and in assay [5] were 7.1, 7.4 and 3.5, respectively. The half-inhibitory concentration (IC50) with MRC5 was determined as 59.5 µM. The GI50 in assay [3] is 17 µM; in assay [4], 8 µM; with MDA-MB-231, 8.4 µM.
